From the CheMixHub ionic liquid set

Assay: xn = mol fraction of the nth substance listed

CCCC[n+]1ccn(C)c1.F[P-](F)(F)(F)(F)F + C1CCOC1
Details | viscosity [mPa·s]
298.15 K, 101 kPa, x2 = 0.195 | 91

CC#N + C=C[n+]1ccn(CC(N)=O)c1.O=S(=O)([N-]S(=O)(=O)C(F)(F)F)C(F)(F)F
Details | viscosity [mPa·s]
323.15 K, 100 kPa, x2 = 0 | 0.262

CCCC[n+]1ccn(C)c1.O=S(=O)([N-]S(=O)(=O)C(F)(F)F)C(F)(F)F + CC1CC(=O)O1
100 kPa, frequency 0.01 MHz, x1 = 1
Details | electrical conductivity [S/m]
293.15 K | 0.337
298.15 K | 0.4
303.15 K | 0.472
308.15 K | 0.552
313.15 K | 0.64
318.15 K | 0.733
323.15 K | 0.835

CCCC[n+]1ccn(C)c1.O=S(=O)([N-]S(=O)(=O)C(F)(F)F)C(F)(F)F + CC1CCC(=O)O1
100 kPa, frequency 0.01 MHz, x1 = 1
Details | electrical conductivity [S/m]
293.15 K | 0.337
298.15 K | 0.4
303.15 K | 0.472
308.15 K | 0.552
313.15 K | 0.64
318.15 K | 0.733
323.15 K | 0.835

CCCC[n+]1ccn(C)c1.O=S(=O)([N-]S(=O)(=O)C(F)(F)F)C(F)(F)F + CC1COC(=O)O1
101.3 kPa, x1 = 1
Details | viscosity [mPa·s]
288.15 K | 80.3
308.15 K | 33.95
328.15 K | 17.98

CC[N+](CC)(CC)CC.F[B-](F)(F)F + CC1COC(=O)O1
101 kPa
Details | viscosity [mPa·s]
283.15 K, x1 = 0.001044 | 3.574
283.15 K, x1 = 0.001302 | 3.581
283.15 K, x1 = 0.001888 | 3.591
283.15 K, x1 = 0.003069 | 3.625
283.15 K, x1 = 0.003925 | 3.642
283.15 K, x1 = 0.005619 | 3.663
283.15 K, x1 = 0.007445 | 3.702
283.15 K, x1 = 0.009039 | 3.739
283.15 K, x1 = 0.01054 | 3.769
283.15 K, x1 = 0.01391 | 3.835
283.15 K, x2 = 0.9206 | 5.439
283.15 K, x2 = 0.9274 | 5.243
283.15 K, x2 = 0.9419 | 4.842
283.15 K, x2 = 0.9434 | 4.813
283.15 K, x2 = 0.9551 | 4.515
283.15 K, x2 = 0.9624 | 4.356
283.15 K, x2 = 0.9701 | 4.177
298.15 K, x1 = 0.001682 | 2.557
298.15 K, x1 = 0.003455 | 2.58
298.15 K, x1 = 0.004813 | 2.598
298.15 K, x1 = 0.006017 | 2.613
298.15 K, x1 = 0.007139 | 2.628
298.15 K, x1 = 0.008167 | 2.641
298.15 K, x1 = 0.009079 | 2.657
298.15 K, x1 = 0.01102 | 2.68
298.15 K, x1 = 0.01252 | 2.701
298.15 K, x1 = 0.01813 | 2.774
298.15 K, x2 = 0.9206 | 3.716
298.15 K, x2 = 0.9283 | 3.58
298.15 K, x2 = 0.9528 | 3.189
298.15 K, x2 = 0.971 | 2.924
308.15 K, x1 = 0.001119 | 2.101
308.15 K, x1 = 0.003553 | 2.127
308.15 K, x1 = 0.005754 | 2.15
308.15 K, x1 = 0.006805 | 2.161
308.15 K, x1 = 0.007615 | 2.17
308.15 K, x1 = 0.008953 | 2.182
308.15 K, x1 = 0.01146 | 2.209
308.15 K, x1 = 0.01324 | 2.228
308.15 K, x2 = 0.9174 | 3.043
308.15 K, x2 = 0.9215 | 2.977
308.15 K, x2 = 0.9382 | 2.775
308.15 K, x2 = 0.9417 | 2.728
308.15 K, x2 = 0.9539 | 2.586
308.15 K, x2 = 0.9711 | 2.396
308.15 K, x2 = 0.9798 | 2.303
313.15 K, x1 = 0.00395 | 1.953
313.15 K, x1 = 0.004693 | 1.963
313.15 K, x1 = 0.005951 | 1.972
313.15 K, x1 = 0.00774 | 1.988
313.15 K, x1 = 0.009433 | 2.003
313.15 K, x1 = 0.01082 | 2.018
313.15 K, x2 = 0.9272 | 2.638
313.15 K, x2 = 0.9371 | 2.531
313.15 K, x2 = 0.9469 | 2.429
313.15 K, x2 = 0.9574 | 2.325
313.15 K, x2 = 0.9712 | 2.185
313.15 K, x2 = 0.9797 | 2.106

CCCC[n+]1ccn(C)c1.F[P-](F)(F)(F)(F)F + CC#N
298.15 K, 101 kPa
Details | electrical conductivity [S/m] | viscosity [mPa·s]
x2 = 0 | 0.157 | 260
x2 = 0.099 | 0.245 | 153
x2 = 0.1938 | 0.374 | 93
x2 = 0.1945 | – | 86
x2 = 0.2936 | 0.552 | 53.6
x2 = 0.3885 | 0.84 | 31.3
x2 = 0.4978 | 1.3 | 16.2
x2 = 0.5896 | 1.84 | 8.8
x2 = 0.6994 | 2.71 | 4.18
x2 = 0.7855 | 3.46 | 2.27
x2 = 0.846 | 3.93 | 1.48
x2 = 0.8918 | 4.18 | 1.08

CCCC[n+]1ccn(C)c1.O=S(=O)([N-]S(=O)(=O)C(F)(F)F)C(F)(F)F + CC#N
Details | electrical conductivity, x1 = 0.0063 [S/m] | electrical conductivity, x1 = 0.01076 [S/m] | electrical conductivity, x2 = 0.661 [S/m] | electrical conductivity, x2 = 0.905 [S/m] | viscosity, x2 = 0 [mPa·s] | viscosity, x2 = 0.1534 [mPa·s] | viscosity, x2 = 0.2508 [mPa·s] | viscosity, x2 = 0.602 [mPa·s] | viscosity, x2 = 0.7518 [mPa·s]
294.5 K, 100 kPa | – | 1.58 | – | – | – | – | – | – | –
298 K, 101 kPa | 1.14 | – | 2.25 | 4.42 | 50.4 | 34.4 | 25.4 | 6.4 | 2.73
